Measured values taken from patent US6911527B1, “HIV related peptides” (The United States of America as represented by the …, priority 1999, dated 2005).

Key:
[1] = tested on: binding of phagotope-specific antibodies to HIV-1; test: Displacement of binding of phagotope-specific antibodies to HIV-1 by phagotopes or peptides (ELISA); details: increasing concentrations of peptide
Experimental: FIG. 3. Phagotope-specific antibodies bind to HIV-1. a, ELISA reactivities of immunoaffinity purified antibodies with HIV-1. Antibodies were immunoaffinity purified from LTNP serum 6090 using single phagotopes as ligands and tested for ELISA reactivity against HIV-1 virions by using a standard ELISA kit (Organon). Purified antibodies were tested at 5-10 ng/ml; HIV-negative (CS) and serum 6090 (HIV-1S) were tested at 1:100 dilution. Data are expressed as mean±SEM of four independent determinations. b, The binding of phagotope-specific antibodies to HIV-1 is specifically displaced by the related phagotopes. ELISA reactivities of single immunopurified antibodies to HIV-I were tested in the presence of the indicated concentrations of p195 (▪), p197 (♦), p217 (●), p287 (▴), p335(▾). […] ELISA reactivities of single immunoaffinity purified antibodies with the related phagotopes were tested in the presence of increasing concentrations of peptides 195 (▪), 197 (▴), 217 (♦), 287 (ρ), 335 (●). d, HIV-1 immunoblotting with phagotope-specific human antibodies. Immunoffinity purified antibodies were tested at 60 ng/ml for binding to HIV-1 proteins in Western blot by a diagnostic kit (Cambridge Biotech.); 6090 LTNP serum was tested at 1:1000 dilution.
The phagotope specific antibodies, purified from serum to IgG concentrations of 5-10 ng/ml, recognized HIV-1 proteins by ELISA (FIG. 3a); this reactivity was specifically displaced by the related phagotopes, but not by wild-type or unrelated phages (FIG. 3b and data not shown).

[2] = tested on: serum antibodies of HIV-1-infected subjects; test: ELISA reactivity of phagotopes with human sera (LTNP, AIDS, HIV-negative); assay type: binding; details: for antibody titers to phagotope in sera from LTNPs versus AIDS patients: p<0.05, one-sided Student's t test
Description: FIG. 1. ELISA reactivities of HIV-specific phagotopes. a, LTNP and AIDS subjects were selected as reported (Pantaleo et al., N. Engl. J Med 332:209 (1995)). HIV-specific phagotopes were identified from RPL pVIII9aa-cys (selection 1), or pVIII9aa (selection 2) by serial steps of screening and phage colony purification as described in the Methods section. Results are expressed as fold increase of the average values of the phagotopes over values of the wild-type phages. Values were considered positive when at least four-fold higher than the background signal of wild-type phage. Average values of at least four independent assays are shown as <4; 4<<10; 10.1<<20; >20. The far right column indicates the recognition frequency of positive sera by each phagotope (f). The percentages of significant phage reactivity in the HIV-positive and control groups were compared using the Fisher Exact Test; p values (p<0.001) were adjusted for multiple testing using the Bonferroni method. b, Comparison of ELISA reactivities of phagotopes with sera of LTNP (hatched bars) versus AIDS subjects (black bars). Data are expressed as mean±SEM of fold increase for each phagotope. Statistical analysis was performed according to the one-sided Student's t test; asterisks indicate p<0.05.
To validate that the bound phagotopes carry HIV-specific epitopes, positive colonies were tested by ELISA for reactivity with sera from multiple HIV-infected individuals and counter-screened with an equivalent number of sera from HIV-negative subjects. For the EJISA analysis, microtiter plates were coated with anti M13 antibody (Pharmacia, Piscataway, N.J.) at 10 μg/ml overnight at 4° C. in coating buffer. Fifty μl of cleared phage supernatant with an equal volume of blocking buffer were incubated for 1 h at 37° C. Plates were washed extensively and supplemented with human serum at 1:100 dilution followed by an overnight incubation at 4° C. After washing, wells were coated with an anti-human (Fc-specific) alkaline phosphatase-conjugated antibody. Plates were washed and developed. Results were expressed as the difference between OD405 nm and OD620 nm by an ELISA reader.

[3] = ELISA reactivities of engineered (modified) peptide epitopes; assay type: binding
Experimental: The amino acid sequences of modifed peptides generated in this manner are as follows: • P195 analog: […] (SEQ ID NO: 14) • P197 analog: […] (SEQ ID NO:15) • P217 analog: […] (SEQ ID NO:16) • P287 analog: […] (SEQ ID NO: 17) • P335 analog: CSGRLYCHESWC (SEQ ID NO:18) • P54 analog: TKTLIYQGA (SEQ ID NO:19) The engineered eptiopes are then determined to be immunogenic as described in Example 4-6.

[4] = tested on: sera of SHIV-infected monkeys; test: ELISA reactivity of monkey sera with HIV-specific phagotopes; assay type: binding, macaques; details: nine SHIV-infected monkeys
Experimental: FIG. 4. ELISA reactivities of monkey sera with HIV-specific phagotopes. Sera of naive monkeys (SHIV Negative) and SHIV-infected animals were tested for binding to HIV-1 phagotopes. Results are expressed as fold increase of OD405 nm values of tested phagotope over the OD405 nm values of wild-type-phage. Cutoff values were set as detailed in the legend to FIG. 1a. All the pre-infection sera of SHIV-positive animals tested negative by ELISA (not shown). A125, 42C, E50 and AK98 are Rhesus macaques; 4138, 4150 and 79 are cynomologous macaques; these animals were infected with SHIVMD1 (Shibata et al., J. Infect. Dis. 176:362 (1997)). 17860 and 17846 are pigtail macaques infected with SHIVMD14YE (Shibata et al., J. Infect. Dis. 176:362 (1997)).
In order to test this hypothesis, sera of nine SHIV-infected monkeys and of four uninfected control animals were tested for ELISA reactivity with the pool of HIV mimotopes. As in the case of HIV-1 infected subjects (FIG. 1a), sera of SHIV-infected monkeys recognized the HIV-1 phagotopes with variable frequencies (FIG. 4).

| Sequence | displacement of antibody binding to HIV-1 by peptides in solution [1] | ELISA reactivities compared with the original peptides displayed on the phagotopes [3] | also measured |
| --- | --- | --- | --- |
| CCGCLTCSV [compound 287] | Only a partial competition | – | – |
| CNGRLYCGP [p217] | – | – | recognition frequency (f) of positive sera by phagotope ([2]; 22 LTNP sera and 25 AIDS sera, serum 1:100, positive = at least four-fold over wild-type phage): 23%; antibody titers to phagotope in sera from LTNPs versus AIDS patients [2]: significantly higher in sera from LTNPs; ELISA reactivity with AIDS sera ([2]; pool of AIDS sera): completely unreactive |
| CNGRLYCGP [peptide 217] | Only a partial competition | – | – |
| CSGRLYCHESWC [P335 analog] | – | similar | – |
| EGEFCCAGQLTCSVCGDPAK [P287 analog] | – | similar | – |
| EGEFCCNGRLYCQPCGDPAK [P217 analog] | – | similar | – |
| EGEFCKSSGKLISLCGDPAK [P195 analog] | – | similar | – |
| EGEFCQTKLVCFAAAGDPAK [P197 analog] | – | similar | – |
| GTKLVCFAA [compound 197] | effectively displaced | – | – |
| KSSGKLISL [compound 195] | effectively displaced | – | – |
| SGRLYCHESW [compound 335] | effectively displaced | – | – |
| SGRLYCHESW [p335] | – | – | antibody titers to phagotope in sera from LTNPs versus AIDS patients [2]: significantly higher in sera from LTNPs |
| TKTLIYGGA [p54] | – | – | ELISA reactivity with sera of SHIV-infected monkeys [4]: certain SHIV sera recognized |
| TKTLIYQGA [P54 analog] | – | similar | – |
